From patent US6589973B1, “Preparation of selective cyclooxygenase II inhibitors” (THEMIS Medicare Ltd., priority 2002, dated 2003)

What was measured:
[1] = background statement; cited from earlier work
[2] = system: Hot Plate Analgesometer in rats; assay: Central analgesic activity, hot plate (55° C) in rats; parameters: species or system Albino rats; settings: rat, in vivo

Molecule | solubility in water (in words) [1] | also measured
Cc1onc(-c2ccccc2)c1-c1ccc(S(N)(=O)=O)cc1 [Valdecoxib] | poorly soluble in water | 
CS(=O)(=O)c1ccc(C2=C(c3ccccc3)C(=O)OC2)cc1 [Rofecoxib] | poorly soluble in water | 
COc1ccc(-c2cc(C(F)F)nn2-c2ccc(S(N)(=O)=O)cc2)cc1F [Deracoxib] | poorly soluble in water | 
Itacoxib | poorly soluble in water | 
Cc1ccc(-c2cc(C(F)(F)F)nn2-c2ccc(S(N)(=O)=O)cc2)cc1 [Celecoxib] | poorly soluble in water | 
CC(C)=CCN1CCC2(C)c3cc(O)ccc3CC1C2C (centres unmarked) [Pentazocin] |  | % Increase in Reaction Time (IRT) [2]: 92.85%; Basal Reaction Time (BRT) [2]: 6.33 ± 0.41 s; Latent Reaction Time (LRT) [2]: 11.66 ± 1.60 s
